Measurements reported in ChEMBL document CHEMBL1201862, “PubChem BioAssay data set” (2004).
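Briefly, cells in 96-well plates were exposed to five compound concentrations for 48 h, and endpoints were estimated by linear interpolation. Here, GI50 denotes the concentration required for 50% inhibition of growth.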 The source made the active and inactive calls. Cut-off read from the data, not from the text of the source: active = GI50 up to about 1.1 µM and inactive = higher.

Legend:
Test in all cases: DTP human tumour cell line panel, 48 h
[1] = test system: A498
[2] = test system: DU-145
[3] = test system: HOP-62
[4] = test system: HOP-92
[5] = test system: IGROV-1
[6] = test system: K562
[7] = test system: M14
[8] = test system: MDA-MB-435
[9] = test system: NCI-H23
[10] = test system: NCI-H460
[11] = test system: NCI/ADR-RES
[12] = test system: OVCAR-5
[13] = test system: RPMI-8226
[14] = test system: SF-539
[15] = test system: SN12C
[16] = test system: SNB-75
[17] = test system: UACC-257
[18] = test system: UO-31
[19] = test system: HCT-116
[20] = test system: SK-OV-3

Measured: GI50

COC(=O)c1cn(CC(O)CCl)nn1 (stereo not given)
inactive: [1] > 100 µM | [2] > 100 µM | [3] > 100 µM | [4] > 100 µM | [5] > 100 µM | [6] > 100 µM | [7] > 100 µM | [8] > 100 µM | [9] > 100 µM | [10] > 100 µM | [11] > 100 µM | [12] > 100 µM | [13] > 100 µM | [14] > 100 µM | [15] > 100 µM | [16] > 100 µM | [17] > 100 µM | [18] > 100 µM

CC(=O)Oc1ccccc1C(=O)Nc1ncc([N+](=O)[O-])s1 [NITAZOXANIDE]
inactive: [1] 56.2 µM | [2] 20.1 µM | [19] 11.2 µM | [3] 22.3 µM | [4] 3.22 µM | [5] 16.3 µM | [6] 55.7 µM | [7] 15.9 µM | [8] 22.8 µM | [9] 9.73 µM | [10] 17.1 µM | [11] 10.3 µM | [12] 29.9 µM | [13] 10.3 µM | [14] 24.8 µM | [20] 14.7 µM | [15] 19.8 µM | [16] 10.2 µM | [17] 17.2 µM | [18] 26 µM

Cc1cc(C)n(C(=C(C(Cl)=C(Cl)Cl)[N+](=O)[O-])n2nc(C)cc2C)n1
inactive: [1] 2.86 µM | [2] 4.12 µM | [19] 3.65 µM | [3] 5.04 µM | [4] 2.72 µM | [5] 4.03 µM | [6] 2.02 µM | [7] 3.8 µM | [8] 2.19 µM | [9] 3.23 µM | [10] 3.52 µM | [11] 3.78 µM | [12] 7.93 µM | [14] 4.59 µM | [20] 3.29 µM | [15] 3.98 µM | [16] 6.25 µM | [17] 3.24 µM | [18] 3.18 µM

COc1ccc(N2C(=O)C3c4[nH]c5ccc(C)cc5c4C4CCC(c5ccccc5)CC4C3C2=O)cc1 (stereo not given)
inactive: [1] 22.9 µM | [2] > 100 µM | [19] > 57.7 µM | [3] 7.05 µM | [4] 14.6 µM | [5] > 51.3 µM | [6] 25.8 µM | [7] 47.1 µM | [8] > 100 µM | [9] 33.7 µM | [10] 39 µM | [11] > 100 µM | [12] > 100 µM | [13] > 82.8 µM | [20] 18.9 µM | [15] > 100 µM | [16] 4.02 µM | [17] > 100 µM | [18] > 89.5 µM

Cc1cnc(/N=c2\sc(C)cn2-c2ncc(C)s2)s1
inactive: [2] > 100 µM | [19] > 100 µM | [3] > 100 µM | [4] > 100 µM | [5] > 100 µM | [6] > 100 µM | [7] > 100 µM | [8] > 100 µM | [9] > 100 µM | [10] > 100 µM | [11] > 100 µM | [12] > 100 µM | [13] > 100 µM | [14] > 100 µM | [20] > 100 µM | [15] > 100 µM | [16] 71.3 µM | [17] > 100 µM | [18] > 100 µM

CCCNC(=S)N/C=C1/C(=O)Oc2ccccc2C1=O
inactive: [1] 88.9 µM | [2] 54.1 µM | [19] > 100 µM | [3] > 100 µM | [4] 53 µM | [5] 89.9 µM | [7] > 100 µM | [8] > 100 µM | [9] > 100 µM | [10] > 100 µM | [11] > 100 µM | [12] > 100 µM | [14] > 100 µM | [20] 42.2 µM | [15] > 100 µM | [16] 33.2 µM | [17] > 100 µM | [18] 28.4 µM

CC1(C)CC(=O)C2=C(C1)OC1=C(CC(C)(C)CC1=O)C2c1ccccc1[N+](=O)[O-] (stereo not given)
inactive: [1] > 100 µM | [2] > 100 µM | [19] > 100 µM | [3] > 100 µM | [4] > 100 µM | [5] > 100 µM | [6] > 100 µM | [7] > 100 µM | [8] > 100 µM | [9] > 100 µM | [10] > 100 µM | [11] > 100 µM | [12] > 100 µM | [13] > 100 µM | [14] > 100 µM | [20] > 100 µM | [15] > 100 µM | [16] > 100 µM | [18] 2 µM

c1ccc(C(NC2=NCCO2)c2ccccc2)cc1
inactive: [1] 5.75 µM | [2] > 10 µM | [19] > 10 µM | [3] > 10 µM | [5] > 10 µM | [6] > 10 µM | [7] > 10 µM | [8] > 10 µM | [9] > 10 µM | [10] > 10 µM | [11] > 10 µM | [12] > 10 µM | [13] > 10 µM | [14] > 10 µM | [20] > 10 µM | [15] > 10 µM | [16] > 10 µM | [18] > 10 µM

COc1cc(/C=C/C(=O)OC[C@]23O[C@H]2[C@@H](OC2OC(C)C(O)C(O)C2O)C2C=CO[C@@H](OC4OC(CO)C(O)C(O)C4O)C23)ccc1O (stereo not given in full)
inactive: [2] > 100 µM | [19] > 100 µM | [3] > 100 µM | [4] > 100 µM | [5] > 100 µM | [6] > 100 µM | [7] > 100 µM | [8] > 100 µM | [9] > 100 µM | [10] > 100 µM | [11] > 100 µM | [12] > 100 µM | [13] > 100 µM | [20] > 100 µM | [15] > 100 µM | [16] > 100 µM | [18] > 100 µM

CC(=O)OCC1OC(n2c3c(c(-c4ccco4)c(C#N)c2=S)CCC3)C(OC(C)=O)C(OC(C)=O)C1OC(C)=O (stereo not given)
inactive: [2] > 100 µM | [19] > 100 µM | [3] > 100 µM | [4] 15.6 µM | [5] 69.3 µM | [6] 21.9 µM | [7] > 100 µM | [8] 68.9 µM | [9] > 100 µM | [10] > 100 µM | [11] 37.8 µM | [12] > 100 µM | [13] 28.1 µM | [14] > 100 µM | [20] > 100 µM | [15] > 100 µM | [16] 23.4 µM | [17] > 100 µM | [18] 80.7 µM

COC(=O)C(Cc1c[nH]c2ccccc12)NP(=O)(O)OCC1OC(n2ccc(N)nc2=O)C(O)C1O (stereo not given)
inactive: [1] > 100 µM | [2] > 100 µM | [19] > 100 µM | [3] > 100 µM | [4] > 100 µM | [5] > 100 µM | [6] > 100 µM | [7] > 100 µM | [8] > 100 µM | [9] > 100 µM | [10] > 100 µM | [11] > 100 µM | [12] > 100 µM | [13] > 100 µM | [14] > 100 µM | [15] > 100 µM | [16] > 100 µM | [17] > 100 µM | [18] > 100 µM

c1ccc(CSC2(SCc3ccccc3)CCCC2)cc1
inactive: [1] > 10 µM | [2] > 10 µM | [19] > 10 µM | [3] > 10 µM | [5] > 10 µM | [6] > 10 µM | [7] > 10 µM | [8] > 10 µM | [9] > 10 µM | [10] > 10 µM | [11] > 10 µM | [12] > 10 µM | [13] > 10 µM | [14] > 10 µM | [20] > 10 µM | [15] > 10 µM | [16] > 10 µM | [18] > 10 µM

Cc1ccc2[nH]c3c(c(=O)n(C)c(=O)n3C)c2c1
inactive: [1] > 100 µM | [2] > 100 µM | [19] > 100 µM | [3] > 100 µM | [4] > 100 µM | [5] > 100 µM | [6] > 100 µM | [7] > 100 µM | [8] > 100 µM | [9] > 100 µM | [11] > 100 µM | [12] > 100 µM | [13] > 100 µM | [14] > 100 µM | [20] > 100 µM | [15] > 100 µM | [16] > 100 µM | [17] > 100 µM | [18] > 100 µM

O=c1[nH]nc(Cc2ccc(Cl)cc2)n1CCO
inactive: [1] > 100 µM | [2] > 100 µM | [19] > 100 µM | [4] > 100 µM | [5] > 100 µM | [6] > 100 µM | [7] > 100 µM | [8] > 100 µM | [9] > 100 µM | [10] > 100 µM | [11] > 100 µM | [12] > 100 µM | [13] > 100 µM | [14] > 100 µM | [20] > 100 µM | [15] > 100 µM | [17] > 100 µM | [18] > 100 µM

ClCC1(CCl)COC1
inactive: [1] > 100 µM | [2] > 100 µM | [19] > 100 µM | [4] > 100 µM | [6] > 100 µM | [7] > 100 µM | [8] > 100 µM | [9] > 100 µM | [10] > 100 µM | [11] > 100 µM | [20] > 100 µM | [15] > 100 µM | [16] > 100 µM | [17] > 100 µM | [18] > 100 µM
